# Measured values taken from ChEMBL document CHEMBL1201862, “PubChem BioAssay data set” (2004).
#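 All cell lines were grown in 96-well plates and treated with compound for 48 hours. Abbreviation: GI50, concentration required for 50% inhibition of growth.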 The source made the active and inactive calls. No stated cut-off is given here; in the data, active = GI50 up to about 1.1 µM and inactive = higher.
# Assays:
# Experiment in all cases: NCI anticancer screen, dose series, 48 h
# [1] = test system: OVCAR-5
# [2] = test system: HCC 2998
# [3] = test system: SF-295
# [4] = test system: SK-MEL-5
# [5] = test system: MOLT-4
# [6] = test system: A549
# [7] = test system: NCI-H226
# [8] = test system: UACC-62
# [9] = test system: OVCAR-3
# [10] = test system: RXF 393
# [11] = test system: SK-MEL-2
# [12] = test system: T47D
# [13] = test system: HOP-92
# [14] = test system: NCI-H23
# [15] = test system: KM12
# [16] = test system: HOP-62
# [17] = test system: EKVX
# [18] = test system: TK-10
# [19] = test system: NCI-H522
# [20] = test system: IGROV-1
Structure (SMILES),GI50 [1],GI50 [2],GI50 [3],GI50 [4],GI50 [5],GI50 [6],GI50 [7],GI50 [8],GI50 [9],GI50 [10],GI50 [11],GI50 [12],GI50 [13],GI50 [14],GI50 [15],GI50 [16],GI50 [17],GI50 [18],GI50 [19],GI50 [20]
O=C1NC(=O)C(CCC(=O)c2cccc3ccccc23)C(=O)N1,> 100 µM (inactive),> 100 µM (inactive),60.1 µM (inactive),> 100 µM (inactive),> 100 µM (inactive),> 100 µM (inactive),77.8 µM (inactive),> 100 µM (inactive),> 100 µM (inactive),> 100 µM (inactive),> 100 µM (inactive),> 100 µM (inactive),> 100 µM (inactive),> 100 µM (inactive),> 100 µM (inactive),–,–,–,–,–
Cc1ccc(N/C(SCc2ccccc2)=C(\C(Cl)=C(Cl)Cl)[N+](=O)[O-])c(C)c1,19.6 µM (inactive),45.6 µM (inactive),23.7 µM (inactive),–,> 100 µM (inactive),27.1 µM (inactive),45.2 µM (inactive),23.6 µM (inactive),8.26 µM (inactive),–,39.6 µM (inactive),18.1 µM (inactive),–,19.5 µM (inactive),17.2 µM (inactive),8.13 µM (inactive),33.4 µM (inactive),–,–,–
C#CCCCC(=C)C[C@@H]1OC(=O)[C@H](C)[C@@H]1O,> 100 µM (inactive),> 100 µM (inactive),> 100 µM (inactive),> 100 µM (inactive),> 100 µM (inactive),> 100 µM (inactive),–,–,> 100 µM (inactive),> 100 µM (inactive),> 100 µM (inactive),> 100 µM (inactive),> 100 µM (inactive),> 100 µM (inactive),> 100 µM (inactive),> 100 µM (inactive),> 100 µM (inactive),–,–,–
NCCc1nc(-c2nc(C(=O)O)cs2)cs1,> 100 µM (inactive),–,> 100 µM (inactive),> 100 µM (inactive),> 100 µM (inactive),> 100 µM (inactive),–,> 100 µM (inactive),> 100 µM (inactive),> 100 µM (inactive),> 100 µM (inactive),> 100 µM (inactive),> 100 µM (inactive),> 100 µM (inactive),> 100 µM (inactive),> 100 µM (inactive),> 100 µM (inactive),> 100 µM (inactive),> 100 µM (inactive),> 100 µM (inactive)
CN(C)CCn1c(=O)c2ccc3c4c(nn3CCN(C)C)c3cc(O)ccc3n(c1=O)c24,0.0723 µM (active),< 0.0493 µM (active),0.0136 µM (active),0.319 µM (active),< 0.01 µM (active),0.0325 µM (active),0.126 µM (active),0.172 µM (active),0.114 µM (active),0.281 µM (active),0.131 µM (active),0.378 µM (active),–,0.0855 µM (active),0.161 µM (active),< 0.0316 µM (active),0.124 µM (active),0.117 µM (active),< 0.01 µM (active),–
CCCC1CC(=O)NC(=O)C1C(=O)OC(C)(C)C (centres undefined),> 100 µM (inactive),> 100 µM (inactive),> 100 µM (inactive),> 100 µM (inactive),> 100 µM (inactive),–,> 100 µM (inactive),> 100 µM (inactive),> 100 µM (inactive),> 100 µM (inactive),> 100 µM (inactive),> 100 µM (inactive),–,> 100 µM (inactive),> 100 µM (inactive),> 100 µM (inactive),> 100 µM (inactive),> 100 µM (inactive),> 100 µM (inactive),> 100 µM (inactive)
O=C1NCc2ccccc2S(=O)(=O)n2cccc21,> 100 µM (inactive),> 100 µM (inactive),> 100 µM (inactive),> 100 µM (inactive),> 100 µM (inactive),> 100 µM (inactive),> 100 µM (inactive),> 100 µM (inactive),> 100 µM (inactive),–,64.4 µM (inactive),50.7 µM (inactive),–,> 100 µM (inactive),> 100 µM (inactive),> 100 µM (inactive),> 100 µM (inactive),> 100 µM (inactive),85.7 µM (inactive),> 100 µM (inactive)
Oc1ccc(-c2csc(N/N=C3\NC/C(=C/c4ccc5c(c4)OCO5)S3)n2)cc1O,47.2 µM (inactive),40.6 µM (inactive),43.2 µM (inactive),9.82 µM (inactive),5.45 µM (inactive),45.5 µM (inactive),43.5 µM (inactive),–,–,–,10 µM (inactive),31.5 µM (inactive),38.5 µM (inactive),9.95 µM (inactive),17.3 µM (inactive),22.1 µM (inactive),26.4 µM (inactive),21.7 µM (inactive),–,20.6 µM (inactive)
CN(C)CCNC(=O)Cn1cc([N+](=O)[O-])c(=O)c2ccccc21,> 100 µM (inactive),> 100 µM (inactive),> 100 µM (inactive),> 100 µM (inactive),> 100 µM (inactive),> 100 µM (inactive),> 100 µM (inactive),> 100 µM (inactive),> 100 µM (inactive),–,> 100 µM (inactive),> 100 µM (inactive),–,> 100 µM (inactive),> 100 µM (inactive),> 100 µM (inactive),–,> 100 µM (inactive),> 100 µM (inactive),> 100 µM (inactive)
O=C1c2sc(-c3ccc(Cl)cc3)cc2-n2cccc21,> 100 µM (inactive),> 100 µM (inactive),> 100 µM (inactive),> 100 µM (inactive),> 100 µM (inactive),> 100 µM (inactive),> 100 µM (inactive),> 100 µM (inactive),> 100 µM (inactive),> 100 µM (inactive),> 100 µM (inactive),> 100 µM (inactive),–,–,> 100 µM (inactive),> 100 µM (inactive),> 100 µM (inactive),> 100 µM (inactive),> 100 µM (inactive),> 100 µM (inactive)
NCCc1ccc2c(c1)C(=O)c1c(O)ccc(O)c1C2=O,5.06 µM (inactive),> 23.9 µM (inactive),4.62 µM (inactive),0.843 µM (active),2.76 µM (inactive),3.56 µM (inactive),17 µM (inactive),5.86 µM (inactive),1.69 µM (inactive),> 21.6 µM (inactive),6.55 µM (inactive),3.37 µM (inactive),4.05 µM (inactive),3.5 µM (inactive),4.72 µM (inactive),3.6 µM (inactive),2.45 µM (inactive),> 100 µM (inactive),–,3.4 µM (inactive)
O=C1/C(=C\c2ccc(F)cc2)CCOc2c1ccc1ccccc21,18.5 µM (inactive),3.48 µM (inactive),22 µM (inactive),21.2 µM (inactive),7.67 µM (inactive),23.4 µM (inactive),–,37.2 µM (inactive),8.15 µM (inactive),13.4 µM (inactive),45.7 µM (inactive),41.6 µM (inactive),24.9 µM (inactive),12.8 µM (inactive),7.94 µM (inactive),26.8 µM (inactive),31.4 µM (inactive),24.4 µM (inactive),34 µM (inactive),–
COC(=O)/C1=C/c2c([nH]c3ccccc23)/C(C(=O)OC)=C\c2c1[nH]c1ccccc21 [CAULERPIN],> 50 µM (inactive),–,40.3 µM (inactive),28.8 µM (inactive),–,33.3 µM (inactive),> 50 µM (inactive),19.9 µM (inactive),24.8 µM (inactive),12.7 µM (inactive),14.4 µM (inactive),20.2 µM (inactive),–,38.1 µM (inactive),35.2 µM (inactive),10.9 µM (inactive),> 50 µM (inactive),32.6 µM (inactive),6.08 µM (inactive),7.53 µM (inactive)
Cc1cc(C)c(N[S+]([O-])c2cccc([N+](=O)[O-])c2)c(C)c1 (centres undefined),> 100 µM (inactive),–,> 100 µM (inactive),–,> 100 µM (inactive),> 100 µM (inactive),> 100 µM (inactive),–,> 100 µM (inactive),> 100 µM (inactive),–,> 100 µM (inactive),> 100 µM (inactive),> 100 µM (inactive),> 100 µM (inactive),> 100 µM (inactive),–,> 100 µM (inactive),–,–
CCCCC/C=C\C=C1\C(=O)C=C[C@@H]1C/C=C\CCCC(=O)O,3.41 µM (inactive),–,3.87 µM (inactive),3.78 µM (inactive),2.25 µM (inactive),5.73 µM (inactive),7.38 µM (inactive),3.94 µM (inactive),2.9 µM (inactive),1.94 µM (inactive),3.05 µM (inactive),9.35 µM (inactive),–,7.16 µM (inactive),2.67 µM (inactive),2.89 µM (inactive),1.9 µM (inactive),8.43 µM (inactive),–,2.75 µM (inactive)
Brc1ccc(-c2ccc(-c3ccc(-c4ccc(Br)s4)s3)s2)s1,> 100 µM (inactive),> 100 µM (inactive),> 100 µM (inactive),> 100 µM (inactive),> 100 µM (inactive),> 100 µM (inactive),54.1 µM (inactive),> 100 µM (inactive),> 100 µM (inactive),> 100 µM (inactive),–,> 100 µM (inactive),> 100 µM (inactive),> 100 µM (inactive),> 100 µM (inactive),> 100 µM (inactive),> 100 µM (inactive),> 100 µM (inactive),–,> 100 µM (inactive)
